In patent US10723727B2, “Tubulysin analogs and methods for their preparation” (priority 2016, dated 2020) one finds IC50 data, which are given here for 14 molecules.

For assay [1], the target named is T1, tubulin/RB3-stathmin-like-domain (RB3-SLD-tdm) complex (Sus scrofa, UniProt P02550+P02554).
T1 construct: purchased Cytoskeleton, Inc. T240; host or cells: RB3-SLD was made in house in E. coli
Description: Tubulin Peptide-Binding Site Competition Assay (fluorescence polarization). More on the design: species or system Porcine. Conditions: FP competition with BODIPY-labeled vinca peptide probe; read after five hours at 22° C.; read-out: Tubulin Peptide-Binding Site Competition Assay IC50. The procedure, abridged:
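The BODIPY vinca-peptide probe was premixed with test compound and then added to porcine tubulin/RB3-SLD, at final concentrations of 3 nM probe, 6 nM tubulin and 100 nM RB3-SLD. The buffer was PIPES pH 7.0 with Tween 20, MgCl2 and EGTA, and 11-point dilutions were run in duplicate. IC50 was fitted from the fluorescence polarization decrease and converted to Ki.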
(In general: Polarisation of emitted light reports the rotation of a fluorescent probe.)

The test system of assay [2] is N87 (gastric cancer) cells. Description: In vitro cell assay (MTS cell viability), N87. Type of assay: cell-based. The note with it: 96 h, free compounds; 96 hours after treatment. The procedure, abridged: (§1)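 Cells seeded 24 h before treatment with antibody-drug conjugates or free compounds, 3-fold serial dilutions at 10 concentrations in duplicate. Viability read by MTS assay 96 h after treatment as % of untreated control; IC50 from four-parameter logistic fit.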

The subject of assay [3] is MDA-MB-361-DYT2 (breast cancer) cells. Put plainly: In vitro cell assay (MTS cell viability), MDA-MB-361-DYT2. The note with it: 96 h, free compounds; 96 hours after treatment. It counts as cell-based. The procedure, abridged:
as §1

In assay [4] the test system is HT-29 cells. Put plainly: In vitro cell assay (MTS cell viability), HT-29 (target non-expressing). It counts as cell-based. Conditions: Homo sapiens, HT-29, 96 h, free compounds; 96 hours after treatment; read-out: HT29 IC50. On the procedure: In Vitro Cell Assay Procedure
Target expressing (BT474 (breast cancer), N87 (gastric cancer), HCC1954 (breast cancer), MDA-MB-361-DYT2 (breast cancer)) or non-expressing (HT-29) cells were seeded in 96-well cell culture plates for 24 hours before treatment. Cells were treated with 3-fold serially diluted antibody-drug conjugates or free compounds (i. e. no antibody conjugated to the drug) in duplicate at 10 concentrations. Cell viability was determined by CellTiter 96® AQueous One Solution Cell Proliferation MTS Assay (Promega, Madison Wis.) 96 hours after treatment. Relative cell viability was determined as percentage of untreated control. IC50 values were calculated using a four parameter logistic model #203 with XLfit v4. 2 (IDBS, Guildford, Surry, UK).

pIC50: −log10 of the molar value.

With `CC[C@H](C)[C@H](NC(=O)C12CCC(CC1)N2C)C(=O)N(C)[C@H](C[C@@H](OC(C)=O)c1nc(C(=O)N[C@@H](Cc2ccccc2)C[C@H](C)C(=O)OC)cs1)C(C)C` [#B13, methyl (2S,4R)-4-[({2-[(1R,3R)-1-(acetyloxy)-4-methyl-3-{methyl[(2S,3S)-3-methyl-2-{[(7-methyl-7-azabicyclo[2.2.1]hept-1-yl)carbonyl]amino}pentanoyl]amino}pentyl]-1,3-thiazol-4-yl}carbonyl)amino]-2-methyl-5-phenylpentanoate], the pIC50 in assay [1] is 8.43; in assay [2] it was greater than 10.21; in assay [3], greater than 10.44; in assay [4] it was greater than 10.66.

As for `CCNC(=O)O[C@H](C[C@H](C(C)C)N(C)C(=O)[C@@H](NC(=O)C12CCCC(CCC1)N2C)[C@@H](C)CC)c1nc(C(=O)N[C@@H](Cc2ccc(N)cc2)C[C@H](C)C(=O)O)cs1` [#B27, (2S,4R)-5-(4-aminophenyl)-4-{[(2-{(1R,3R)-1-[(ethylcarbamoyl)oxy]-4-methyl-3-(methyl{N-[(9-methyl-9-azabicyclo[3.3.1]non-1-yl)carbonyl]-L-isoleucyl}amino)pentyl]-1,3-thiazol-4-yl}carbonyl)amino]-2-methylpentanoic acid], the negative-log IC50 (pIC50) in assay [1] was greater than 9.19; in assay [2], 8.19; in assay [3] it was 8.26; in assay [4] it was 8.27.

As for `CC[C@H](C)[C@H](NC(=O)[C@@]1(C)CCCN1C)C(=O)N(C)[C@H](C[C@@H](OC(C)=O)c1nc(C(=O)NCCc2cscn2)cs1)C(C)C` [#B76, 1,2-dimethyl-D-prolyl-N-[(1R,3R)-1-(acetyloxy)-4-methyl-1-(4-{[2-(1,3-thiazol-4-yl)ethyl]carbamoyl}-1,3-thiazol-2-yl)pentan-3-yl]-N-methyl-L-isoleucinamide], the pIC50 in assay [1] is 7.70; in assay [2] it was 7.06; in assay [3], 7.38; in assay [4], 7.43.

In the case of `CCNC(=O)O[C@H](C[C@H](C(C)C)N(C)C(=O)[C@@H](NC(=O)[C@@]1(C)CCCN1C)[C@@H](C)CC)c1nc(C(=O)N[C@@H](Cc2ccc(N)cc2)C[C@H](C)C(=O)O)cs1` [#B21, 1,2-dimethyl-D-prolyl-N-{(1R,3R)-1-(4-{[(2R,4S)-1-(4-aminophenyl)-4-carboxypentan-2-yl]carbamoyl}-1,3-thiazol-2-yl)-1-[(ethylcarbamoyl)oxy]-4-methylpentan-3-yl}-N-methyl-L-isoleucinamide], the pIC50 in assay [1] is 8.72; in assay [2] it was 8.73; in assay [3] it was 8.71; in assay [4], 8.79.

With `CC[C@H](C)[C@H](NC(=O)[C@@]1(C)CCCN1C)C(=O)N(C)[C@H](C[C@@H](OC(=O)N(C)C)c1nc(C(=O)N[C@@H](Cc2ccc(N)cc2)C[C@H](C)C(=O)O)cs1)C(C)C` [#B31, 1,2-dimethyl-D-prolyl-N-{(1R,3R)-1-(4-{[(2R,4S)-1-(4-aminophenyl)-4-carboxypentan-2-yl]carbamoyl}-1,3-thiazol-2-yl)-1-[(dimethylcarbamoyl)oxy]-4-methylpentan-3-yl}-N-methyl-L-isoleucinamide], the pIC50 in assay [1] was 8.51; in assay [2], 8.42; in assay [3] it was 8.39; in assay [4], 8.41.

Take `CC[C@H](C)[C@H](NC(=O)[C@@]1(C)CCCN1C)C(=O)N(C)[C@H](C[C@@H](OC(=O)NC)c1nc(C(=O)N[C@@H](Cc2ccc(N)cc2)C[C@H](C)C(=O)O)cs1)C(C)C` [#B30, 1,2-dimethyl-D-prolyl-N-{(1R,3R)-1-(4-{[(2R,4S)-1-(4-aminophenyl)-4-carboxypentan-2-yl]carbamoyl}-1,3-thiazol-2-yl)-4-methyl-1-[(methylcarbamoyl)oxy]pentan-3-yl}-N-methyl-L-isoleucinamide]: the pIC50 is 8.49 in assay [1], 8.57 in assay [2], 8.49 in assay [3] and 8.74 in assay [4].

As to `CC[C@H](C)[C@H](NC(=O)C12CC(CN1C)C2)C(=O)N(C)[C@H](C[C@@H](OC(C)=O)c1nc(C(=O)N[C@@H](Cc2ccccc2)C[C@H](C)C(=O)OC)cs1)C(C)C` [#B17, methyl (2S,4R)-4-[({2-[(1R,3R)-1-(acetyloxy)-4-methyl-3-(methyl{N-[(2-methyl-2-azabicyclo[2.1.1]hex-1-yl)carbonyl]-L-isoleucyl}amino)pentyl]-1,3-thiazol-4-yl}carbonyl)amino]-2-methyl-5-phenylpentanoate], the pIC50 in assay [1] is 7.72; in assay [2] it was 9.41; in assay [3], 10.40; in assay [4], 10.43.

On to `CCNC(=O)O[C@H](C[C@H](C(C)C)N(C)C(=O)[C@@H](NC(=O)C12CCC(CC1)N2C)[C@@H](C)CC)c1nc(C(=O)N[C@@H](Cc2ccc(N)cc2)C[C@H](C)C(=O)O)cs1` [#B26, (2S,4R)-5-(4-aminophenyl)-4-{[(2-[(6R,8R,11S)-11-[(2S)-butan-2-yl]-9-methyl-13-(7-methyl-7-azabicyclo[2.2.1]hept-1-yl)-4,10,13-trioxo-8-(propan-2-yl)-5-oxa-3,9,12-triazatridecan-6-yl]-1,3-thiazol-4-yl}carbonyl)amino]-2-methylpentanoic acid], for which the pIC50 in assay [1] is greater than 9.30; in assay [2] it was 8.11; in assay [3], 8.08; in assay [4] it was 8.05.

In the case of `CC[C@H](C)[C@H](NC(=O)[C@@]1(C)CCCN1C)C(=O)N(C)[C@H](C[C@@H](OC(C)=O)c1nc(C(=O)N[C@@H](Cc2ccccc2)c2nccs2)cs1)C(C)C` [#B78, 1,2-dimethyl-D-prolyl-N-[(1R,3R)-1-(acetyloxy)-4-methyl-1-(4-{[(1S)-2-phenyl-1-(1,3-thiazol-2-yl)ethyl]carbamoyl}-1,3-thiazol-2-yl)pentan-3-yl]-N-methyl-L-isoleucinamide], the pIC50 in assay [1] is 8.03; in assay [2], 7.40; in assay [3], 7.70; in assay [4] it was 7.84.

In the case of `CC[C@H](C)[C@H](NC(=O)[C@@]1(C)CCCN1C)C(=O)N(C)[C@H](C[C@@H](OC(C)=O)c1nc(C(=O)N[C@@H](Cc2ccc(N)cc2)C[C@H](C)C(=O)O)cs1)C(C)C` [#B9, 1,2-dimethyl-D-prolyl-N-[(1R,3R)-1-(acetyloxy)-1-(4-{[(2R,4S)-1-(4-aminophenyl)-4-carboxypentan-2-yl]carbamoyl}-1,3-thiazol-2-yl)-4-methylpentan-3-yl]-N-methyl-L-isoleucinamide], the pIC50 is 8.60 in assay [1], 8.97 in assay [2], 9.12 in assay [3] and 9.19 in assay [4].

Regarding `CC[C@H](C)[C@H](NC(=O)[C@@]1(C)CCCN1C)C(=O)N(C)[C@H](C[C@@H](OC(C)=O)c1nc(C(=O)N[C@@H](Cc2ccccc2)C(O)c2nccs2)cs1)C(C)C` (stereo partly drawn) [#B62, 1,2-dimethyl-D-prolyl-N-[(1R,3R)-1-(acetyloxy)-1-(4-{[(2S)-1-hydroxy-3-phenyl-1-(1,3-thiazol-2-yl)propan-2-yl]carbamoyl}-1,3-thiazol-2-yl)-4-methylpentan-3-yl]-N-methyl-L-isoleucinamide], the pIC50 was 8.33 in assay [1], 7.98 in assay [2], 8.58 in assay [3] and 8.65 in assay [4].

On to `CC[C@H](C)[C@H](NC(=O)[C@@]1(C)CCCN1C)C(=O)N(C)[C@H](C[C@@H](OC(C)=O)c1nc(C(=O)N[C@@H](Cc2ccccc2)[C@@H](O)C(=O)OC)cs1)C(C)C` [#B51, 1,2-dimethyl-D-prolyl-N-[(1R,3R)-1-(acetyloxy)-1-(4-{[(2S,3R)-3-hydroxy-4-methoxy-4-oxo-1-phenylbutan-2-yl]carbamoyl}-1,3-thiazol-2-yl)-4-methylpentan-3-yl]-N-methyl-L-isoleucinamide], for which the pIC50 in assay [1] is 7.93; in assay [2] it was 8.11; in assay [3], 8.53; in assay [4] it was 8.66.

For `CC[C@H](C)[C@H](NC(=O)[C@@]1(C)CCCN1C)C(=O)N(C)[C@H](C[C@@H](OC(C)=O)c1nc(C(=O)N[C@@H](Cc2ccc(N)cc2)c2nccs2)cs1)C(C)C` [#B80, 1,2-dimethyl-D-prolyl-N-[(1R,3R)-1-(acetyloxy)-1-(4-{[(1S)-2-(4-aminophenyl)-1-(1,3-thiazol-2-yl)ethyl]carbamoyl}-1,3-thiazol-2-yl)-4-methylpentan-3-yl]-N-methyl-L-isoleucinamide], the pIC50 in assay [1] is 8.19; in assay [2] it was 7.73; in assay [3] it was 8.38; in assay [4], 8.33.

For the molecule `CC[C@H](C)[C@H](NC(=O)[C@@]1(C)CCCN1C)C(=O)N(C)[C@H](C[C@@H](OC(C)=O)c1nc(C(=O)N[C@H](COCc2ccccc2)Cc2ccccc2)cs1)C(C)C` [#B61, 1,2-dimethyl-D-prolyl-N-[(1R,3R)-1-(acetyloxy)-1-(4-{[(2S)-1-(benzyloxy)-3-phenylpropan-2-yl]carbamoyl}-1,3-thiazol-2-yl)-4-methylpentan-3-yl]-N-methyl-L-isoleucinamide], the pIC50 in assay [1] was 7.72; in assay [2], 7.41; in assay [3], 7.63; in assay [4], 7.83.

One may read the pIC50 as the IC50 on a negative log10 scale, so that one unit is a factor of ten.
